Laboratory results from the supplement of paper PMC11061612.

How the values were obtained:
[1] = compound: O=c1[nH]cc(F)c(=O)[nH]1 [5-Fluorouracil]; conditions: max 20 µM
Summary of the method: (§1)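 Viability was measured with CellTiter-Glo 2.0 luminescence after 72 hours of dosing at a final DMSO of typically 0.2%, and scaled between blank-well and DMSO-well means. Beforehand, cancer cell lines sat 24 hours at 37°C and 5% CO2 in 1536-well plates in 7.5 μl DMEM/F12 or RPMI with 10% FBS. A non-linear mixed effects model fitted two-parameter logistic curves to the dose responses. The single-agent IC50 comes from these fits.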

[2] = compound: COc1cc2ncnc(Nc3ccc(F)c(Cl)c3)c2cc1OCCCN1CCOCC1 [Gefitinib]; conditions: max 10 µM
Summary of the method: as §1

[3] = compound: Cc1nc(-c2cn3c(n2)-c2ccc(-c4cnn(C(C)(C)C(N)=O)c4)cc2OCC3)n(C(C)C)n1 [Taselisib]; conditions: max 10 µM
Summary of the method: as §1

[4] = compound: Cc1c2c(nn1C)CSCc1cc(n(C)n1)CSc1cc(c3ccccc3c1)OCCCc1c(C(=O)O)n(C)c3c-2c(Cl)ccc13 [AZD5991]; conditions: max 1 µM
Summary of the method: as §1

[5] = compound: COc1cccc(OCCCN)c1-c1cc(Nc2cnc(C#N)cn2)n[nH]1 [Prexasertib]; conditions: max 1 µM
Summary of the method: as §1

[6] = compound: CC(C)n1c(=O)n(C)c2cnc3cc(F)c(-c4ccc(OCCCN5CCCCC5)nc4)cc3c21 [AZD1390]; conditions: max 0.3 µM
Summary of the method: as §1

[7] = compound: C1CN(CCC1(C(=O)N[C@@H](CCO)C2=CC=C(C=C2)Cl)N)C3=NC=NC4=C3C=CN4 [AZD5363]; conditions: max 10 µM
Summary of the method: as §1

[8] = compound: CN(C)CCCOc1ccc(-c2ccc3ncc4c(c3c2)n(C2CCOCC2)c(=O)n4C)cn1 [AZD0156]; conditions: max 3 µM
Summary of the method: as §1

[9] = compound: CCN(CCO)CCCOc1ccc2c(Nc3cc(CC(=O)Nc4cccc(F)c4)[nH]n3)ncnc2c1 [AZD2811]; conditions: max 1 µM
Summary of the method: as §1

[10] = compound: N#Cc1cnc(Nc2cc(NC[C@H]3CNCCO3)c(C(F)(F)F)cn2)cn1 [SRA737]; conditions: max 10 µM
Summary of the method: as §1

[11] = compound: O=C(Nc1ccc2[nH]nc(-c3ccncc3)c2c1)[C@@H]1CCN(CC(=O)N2CCN(c3ccc(-c4ncccn4)cc3)CC2)C1; conditions: max 5 µM
Summary of the method: as §1

[12] = compound: COc1cc(Nc2ncc3c(n2)-c2ccc(Cl)cc2C(c2c(F)cccc2OC)=NC3)ccc1C(=O)O [Alisertib]; conditions: max 10 µM
Summary of the method: as §1

[13] = compound: C=CCn1c(=O)c2cnc(Nc3ccc(N4CCN(C)CC4)cc3)nc2n1-c1cccc(C(C)(C)O)n1 [AZD1775]; conditions: max 3 µM
Summary of the method: as §1

[14] = compound: CN(CC[C@H](CSC1=CC=CC=C1)NC2=C(C=C(C=C2)S(=O)(=O)NC(=O)C3=CC=C(C=C3)N4CCC(CC4)[C@H](C5=CC=CC=C5C6=CC=C(C=C6)Cl)O)S(=O)(=O)C(F)(F)F)CCO [AZD4320]; conditions: max 1 µM
Summary of the method: as §1

[15] = compound: Nc1ccn([C@@H]2O[C@H](CO)[C@@H](O)C2(F)F)c(=O)n1 [Gemcitabine]; conditions: max 0.3 µM
Summary of the method: as §1

[16] = compound: C[C@@H](Oc1cc(-c2cnn(C3CCNCC3)c2)cnc1N)c1c(Cl)ccc(F)c1Cl [Crizotinib]; conditions: max 10 µM
Summary of the method: as §1

[17] = compound: C1CC(C1)(C(=O)[O-])C(=O)[O-].N.N.[Pt+2] [Carboplatin]; conditions: max 10 µM
Summary of the method: as §1

[18] = compound: CC1(C)CCC(CN2CCN(c3ccc(C(=O)NS(=O)(=O)c4ccc(NCC5CCOCC5)c([N+](=O)[O-])c4)c(Oc4cnc5[nH]ccc5c4)c3)CC2)=C(c2ccc(Cl)cc2)C1 [Venetoclax]; conditions: max 1 µM
Summary of the method: as §1

[19] = compound: COc1cccc2c1C(=O)c1c(O)c3c(c(O)c1C2=O)C[C@@](O)(C(=O)CO)C[C@@H]3O[C@H]1C[C@H](N)[C@H](O)[C@H](C)O1 [Doxorubicin]; conditions: max 1 µM
Summary of the method: as §1

[20] = compound: COc1nnc2ccc(N3CCC(c4ccc(OCCN5CCN(C)C(=O)[C@H]5C)cc4)CC3)nn12 [AZD5153]; conditions: max 1 µM
Summary of the method: as §1

[21] = compound: CC1=C(C(=CC=C1)Cl)NC(=O)C2=CN=C(S2)NC3=CC(=NC(=N3)C)N4CCN(CC4)CCO [Dasatinib]; conditions: max 2 µM
Summary of the method: as §1

[22] = compound: CCc1c2c(nc3ccc(O)cc13)-c1cc3c(c(=O)n1C2)COC(=O)[C@]3(O)CC [SN-38]; conditions: max 0.3 µM
Summary of the method: as §1

[23] = compound: CS(=O)(=O)CCNCc1ccc(-c2ccc3ncnc(Nc4ccc(OCc5cccc(F)c5)c(Cl)c4)c3c2)o1 [Lapatinib]; conditions: max 10 µM
Summary of the method: as §1

[24] = compound: O=C(c1cc(Cc2n[nH]c(=O)c3ccccc23)ccc1F)N1CCN(C(=O)C2CC2)CC1 [Olaparib]; conditions: max 10 µM
Summary of the method: as §1

[25] = compound: Cn1cnc2c(F)c(Nc3ccc(Br)cc3Cl)c(C(=O)NOCCO)cc21 [Selumetinib]; conditions: max 10 µM
Summary of the method: as §1

[26] = compound: CC(=O)O[C@H]1C(=O)[C@@]2(C)[C@H]([C@H](OC(=O)c3ccccc3)[C@]3(O)C[C@H](OC(=O)[C@H](O)[C@@H](NC(=O)c4ccccc4)c4ccccc4)C(C)=C1C3(C)C)[C@]1(OC(C)=O)CO[C@@H]1C[C@@H]2O [Paclitaxel]; conditions: max 3 µM
Summary of the method: as §1

[27] = compound: NC1(c2ccc(-c3nc4ccn5c(=O)[nH]nc5c4cc3-c3ccccc3)cc2)CCC1 [MK-2206]; conditions: max 10 µM
Summary of the method: as §1

[28] = compound: CC(=O)c1c(C)c2cnc(Nc3ccc(N4CCNCC4)cn3)nc2n(C2CCCC2)c1=O [Palbociclib]; conditions: max 10 µM
Summary of the method: as §1

[29] = compound: CC1=CN2[C@@H](C1)C=NC3=CC(=C(C=C3C2=O)OC)OCCCCCOC4=C(C=C5C(=C4)N=C[C@@H]6CC(=CN6C5=O)C)OC [SG3199]; conditions: max 0.001 µM
Summary of the method: as §1

[30] = compound: C[C@@H](c1ccc2nccn2c1)n1nnc2ncc(-c3cnn(C)c3)nc21 [Savolitinib]; conditions: max 1 µM
Summary of the method: as §1

[31] = compound: C[C@@H]1COCCN1C2=NC(=NC(=C2)C3(CC3)[S@](=N)(=O)C)C4=C5C=CNC5=NC=C4 [AZD6738]; conditions: max 10 µM
Summary of the method: as §1

[32] = compound: CC(=O)Nc1cccc(-n2c(=O)n(C3CC3)c(=O)c3c(Nc4ccc(I)cc4F)n(C)c(=O)c(C)c32)c1 [Trametinib]; conditions: max 1 µM
Summary of the method: as §1

[33] = compound: C[C@@H](Nc1cc(F)cc(F)c1)c1cc(C(=O)N(C)C)cc2c(=O)cc(N3CCOCC3)oc12 [AZD8186]; conditions: max 10 µM
Summary of the method: as §1

[34] = compound: COc1cc([C@@H]2c3cc4c(cc3[C@@H](O[C@@H]3O[C@@H]5CO[C@@H](C)O[C@H]5[C@H](O)[C@H]3O)[C@H]3COC(=O)[C@H]23)OCO4)cc(OC)c1O [Etoposide]; conditions: max 10 µM
Summary of the method: as §1

[35] = compound: Cc1cc2ncnn2cc1Nc1ncc2c(n1)n(C1CCOCC1)c(=O)n2C [AZD7648]; conditions: max 10 µM
Summary of the method: as §1

Cell Line	IC50, cell viability 72 h [1] [nM]	IC50, cell viability 72 h [2] [nM]	IC50, cell viability 72 h [3] [nM]	IC50, cell viability 72 h [4] [nM]	IC50, cell viability 72 h [5] [nM]	IC50, cell viability 72 h [6] [nM]	IC50, cell viability 72 h [7] [nM]	IC50, cell viability 72 h [8] [nM]	IC50, cell viability 72 h [9] [nM]	IC50, cell viability 72 h [10] [nM]	IC50, cell viability 72 h [11] [nM]	IC50, cell viability 72 h [12] [nM]	IC50, cell viability 72 h [13] [nM]	IC50, cell viability 72 h [14] [nM]	IC50, cell viability 72 h [15] [nM]	IC50, cell viability 72 h [16] [nM]	IC50, cell viability 72 h [17] [nM]	IC50, cell viability 72 h [18] [nM]	IC50, cell viability 72 h [19] [nM]	IC50, cell viability 72 h [20] [nM]	IC50, cell viability 72 h [21] [nM]	IC50, cell viability 72 h [22] [nM]	IC50, cell viability 72 h [23] [nM]	IC50, cell viability 72 h [24] [nM]	IC50, cell viability 72 h [25] [nM]	IC50, cell viability 72 h [26] [nM]	IC50, cell viability 72 h [27] [nM]	IC50, cell viability 72 h [28] [nM]	IC50, cell viability 72 h [29] [nM]	IC50, cell viability 72 h [30] [nM]	IC50, cell viability 72 h [31] [nM]	IC50, cell viability 72 h [32] [nM]	IC50, cell viability 72 h [33] [nM]	IC50, cell viability 72 h [34] [nM]	IC50, cell viability 72 h [35] [nM]
ES7 (Ewing's Sarcoma)	12300	> 10000	3020	861	33	> 300	> 10000	> 3000	25.4	7440	> 5000	249	1070	204	6.44	3360	> 10000	> 1000	38.8	289	> 2000	1.13	> 10000	3820	> 10000	3.3	7750	3870	> 1	> 1000	2440	> 1000	2000	257	> 10000
G-292-Clone-A141B1 (Osteosarcoma)	> 20000	> 10000	1160	> 1000	> 1000	> 300	> 10000	> 3000	> 1000	> 10000	> 5000	> 10000	> 3000	> 1000	> 300	> 10000	> 10000	> 1000	> 1000	> 1000	> 2000	> 300	> 10000	> 10000	> 10000	> 3000	> 10000	> 10000	> 1	> 1000	> 10000	> 1000	> 10000	> 10000	> 10000
HT-29 (Colorectal Carcinoma)	> 20000	> 10000	2220	> 1000	28.3	> 300	> 10000	> 3000	> 1000	4640	436	> 10000	310	> 1000	161	6730	> 10000	> 1000	> 1000	155	> 2000	64.7	> 10000	> 10000	1000	18	> 10000	> 10000	> 1	> 1000	2390	11.9	> 10000	> 10000	> 10000
IHH-4 (Thyroid Gland Carcinoma)	3430	> 10000	> 10000	> 1000	99.4	> 300	> 10000	> 3000	> 1000	> 10000	1220	5970	414	> 1000	8.74	7340	> 10000	> 1000	275	680	961	5.41	> 10000	> 10000	4470	7	> 10000	> 10000	> 1	> 1000	4340	85.3	> 10000	1670	> 10000
KARPAS-620 (Plasma Cell Myeloma)	> 20000	> 10000	501	59.9	80.4	> 300	1620	> 3000	> 1000	> 10000	> 5000	10000	1480	5.91	> 300	4750	> 10000	84.6	> 1000	167	> 2000	> 300	> 10000	> 10000	5720	6.98	2230	> 10000	> 1	> 1000	> 10000	929	> 10000	> 10000	> 10000
